Laboratory results taken from patent publication US20040209956A1 (priority 2003, published 2004).

Experiments:
Type in all cases: physicochemical
[1] = Solubility and solid form in DMF/water/acetonitrile ternary solvent system; conditions: one molar equivalent excess maleic acid
Experimental: The final set of solubility studies were conducted in ternary solvent systems of dimethyl formamide (DMF)/water/acetonitrile (ACN). This system was studied because most of the early success in crystallizing S-[2-[(1-Iminoethyl)amino]ethyl]-2-methyl-L-cysteine maleate salt was found in this solvent mixture. […] Experiments were only conducted for the last four of these compositions at 25° C., but the data was collected for the compositions at 5° C. Supernatant was analyzed after four and nineteen days. Equilibrated solids were also isolated and characterized after nineteen days from most experiments (see Table 5). […] Table 5, lists concentration data in wt % S-[2-[(1-Iminoethyl)amino]ethyl]-2-methyl-L-cysteine from all the experiments at 5 and 25° C. after four and nineteen days of equilibration. […] There is also some temperature dependence for solubility across all the experiments. When the data is analyzed at a fixed ACN content, it seems that the solubility initially decreases before increasing as the DMF content of the system is increased at the expense of water. This trend seems to hold for both 70 and 90% ACN. […] In summary, though this solvent system is complex, it does offer regions of solvent composition conducive to crystallization process design especially for form II.

[2] = Stability of free zwitterion at different pH by ion pairing gradient HPLC (Example 6); conditions: for Purity At The Time Of Titration: a few hours after preparation; for Purity One Week After Titration: after 1 week
Experimental: Amberlite IRA400 (Cl) resin was rinsed with 3M HCl, water, and then 3M NaOH. Aliquots were 100 ml per 10 g of resin. This procedure was repeated 3 times in order to clean the resin and in order to generate the OH form. A final rinse with water was carried out until the conductivity of the eluting water was 2 μS. The resin was then used to titrate 40 ml of a 50 mg/ml solution of S-[2-[(1-Iminoethyl)amino]ethyl]-2-methyl-L-cysteine di-hydrochloride. The concentration is expressed in terms of zwitterion equivalents. Aliquots were taken throughout the titration, filtered and analyzed by HPLC. Subsamples of the aliquots were saved for a second HPLC analysis 1 week after the titration was performed in order to assess the stability of the samples. Additional aliquots were taken for Cl analysis using an ion selective electrode. The pH was also monitored throughout the titration.
HPLC analyses were performed using an ion pairing gradient method.
Pump A: 20 mM KH2PO4, 10 mM Pentane sulfonic acid, adjusted to pH=3 with phosphoric acid
Gradient: 0% B at 0 min, 26% B at 15 min, 0% B at 15.1 min

[3] = HPLC stability of anion exchange titrated samples (Example 5); conditions: product at pH of 11 within a few hours
Experimental: 3.3 g of a sample containing about 1 g of S-[2-[(1-Iminoethyl)amino]ethyl]-2-methyl-L-cysteine di-hydrochloride was diluted to 20 g. Aliquots of prewashed Amberlite IRA400 (OH) resin was added to the solution and samples were periodically withdrawn through a syringe filter. Intermediate resin filtrations were performed at pH of 7.1 and 8.8 by filtering off the resin in solution and then continuing to add fresh resin to the filtrate. This was done to drive the chloride removal equilibrium and minimize product adsorption. After the final pH of 11.2 was attained, the resin was filtered off. The starting materials, intermediate samples and final filtrate were analyzed.
The resulting samples were analyzed by HPLC. No difference was seen between the HPLC traces of the starting material and product at pH of 11 within a few hours.

physchem = test: physchem
From the text: The parent S-[2-[(1-Iminoethyl)amino]ethyl]-2-methyl-L-cysteine molecule has 3 ionizable groups and can exist in 4 ionization states.
At low pH, the molecule exists as a +2 charged free acid, with the carboxylic acid, amine and amidine moieties protonated. This is the ionization state for the dihydrochloride salt.
As the pH is increased, the carboxylic acid group is the first group to deprotonate, and this produces a net charge on the molecule of +1. If the pH increase is generated by addition of sodium hydroxide to S-[2-[(1-Iminoethyl)amino]ethyl]-2-methyl-L-cysteine, the […] is formed. Other bases would make their corresponding salt forms. If the increase in pH is due to removal of chloride ions by anion exchange processing, the product is the monohydrochloride salt with no sodium or other counterions.
A positive charge still resides on the amidine, and a negative charge still resides on the carboxyl group. In contrast, if such material is made by the addition of sodium hydroxide to the dihydrochloride, the resulting product is the monohydrochloro sodium salt, mixed with one equivalent of sodium chloride. The material prepared by the anion exchange resin approach is the free zwitterion.
Further increases in pH lead to deprotonation of the amidine ion (pKa˜12.5). The molecule in this pH range is the free base and acid salt. […]

[4] = Pseudo-titration in water with IRA-400(OH) anion exchange resin, samples assayed by HPLC (Example 3); conditions: for pH of slower rise representative of the pK: pseudo-titration in water, not true equilibrium
Experimental: 60 g of Amberlite IRA400 (OH) resin was prewashed with 4.7 percent (by weight) ammonium hydroxide (50 ml of 28 percent ammonium hydroxide, 250 ml deionized water), followed by extensive washing with deionized water. The final conductivity was 6.1 μS.
Samples containing about 0.9 g of S-[2-[(1-Iminoethyl)amino]ethyl]-2-methyl-L-cysteine di-hydrochloride in 142 ml HCl/water solution, were concentrated on a rotary evaporator at 60° C. to an oil. To the oil, diluted to 60 ml with deionized water, was added aliquots of 0.5 g of washed anion exchange resin while stirring. At five minutes after each aliquot of resin was added, the solution pH was measured and a sample removed through a syringe filter. A total of 9 g of anion exchange resin was added. The final pH was 10.8. The resin was removed by filtration and the filtrate was concentrated to an oil by rotary evaporation at 60° C.; no solids formed. The starting material, final filtrate and all intermediate samples were assayed by HPLC and ion chromatography for chloride.
The diamond (solid line) is pH and square (dashed line) is S-[2-[(1-Iminoethyl)amino]ethyl]-2-methyl-L-cysteine (percent initial, by ion chromatography). […] The diamond (solid line) is pH and triangle (broken line) is chloride (by ion chromatography).
These curves are not true titration curves since samples were withdrawn during the progress of the reaction, and since true equilibrium was not attained before the increments of resin were added. Nevertheless, the graphs of FIG. 2 and FIG. 3 illustrate the expected trends. As resin is added to the S-[2-[(1-Iminoethyl)amino]ethyl]-2-methyl-L-cysteine solution the pH rises with change in slope around pH's of 2, 9 and 11. The pH's of slower rise are representative of the pK's of the carboxylic acid, amine and amidine functional groups, respectively. Above a pH of 10, the S-[2-[(1-Iminoethyl)amino]ethyl]-2-methyl-L-cysteine concentration in solution decreases. At this point, the S-[2-[(1-Iminoethyl)amino]ethyl]-2-methyl-L-cysteine is gaining a net negative charge and is binding to the resin. […] The final chloride content is approximately 0.04 mol equivalents.

[5] = Moisture sorption of Form I; conditions: 90% R.H. and 25° C.
From the text: FIG. 12 is a plot of a moisture sorption study of S-[2-[(1-Iminoethyl)amino]ethyl]-2-methyl-L-cysteine maleate.

In the case of `CC(=N)NCCSC[C@](C)(N)C(=O)O.O=C(O)/C=C\C(=O)O` [S-[2-[(1-Iminoethyl)amino]ethyl]-2-methyl-L-cysteine maleate], the “Solubility in DMF/water/acetonitrile” value ([1]; 5/5/90 D/W/A, 5° C., 4 Days) is reported as 1.15 Wt %, the “Solubility in DMF/water/acetonitrile” value ([1]; 5/5/90 D/W/A, 5° C., 19 Days) is reported as 1.16 Wt % and the “Solubility in DMF/water/acetonitrile” value ([1]; 6.3/3.4/90 D/W/A, 5° C., 4 Days) is reported as 1.35 Wt %. The “Solubility in DMF/water/acetonitrile” value ([1]; 6.3/3.4/90 D/W/A, 5° C., 19 Days) was 1.02 Wt %, the “Solubility in DMF/water/acetonitrile” value ([1]; 6.3/3.4/90 D/W/A, 25° C., 4 Days) was 2.13 Wt % and the “Solubility in DMF/water/acetonitrile” value ([1]; 6.3/3.4/90 D/W/A, 25° C., 19 Days) was 1.74 Wt %. The “Solubility in DMF/water/acetonitrile” value ([1]; 7.5/2.5/90 D/W/A, 5° C., 4 Days) was 4.19 Wt %, the “Solubility in DMF/water/acetonitrile” value ([1]; 7.5/2.5/90 D/W/A, 5° C., 19 Days) was 2.12 Wt % and the “Solubility in DMF/water/acetonitrile” value ([1]; 7.5/2.5/90 D/W/A, 25° C., 4 Days) was 2.53 Wt %. For the same compound, the “Solubility in DMF/water/acetonitrile” value ([1]; 7.5/2.5/90 D/W/A, 25° C., 19 Days) was 2.45 Wt %, the “Solubility in DMF/water/acetonitrile” value ([1]; 15/15/70 D/W/A, 5° C., 4 Days) was 3.31 Wt % and the “Solubility in DMF/water/acetonitrile” value ([1]; 15/15/70 D/W/A, 5° C., 19 Days) was 5.71 Wt %. For the same compound, the “Solubility in DMF/water/acetonitrile” value ([1]; 20/10/70 D/W/A, 5° C., 4 Days) was 2.91 Wt %, the “Solubility in DMF/water/acetonitrile” value ([1]; 20/10/70 D/W/A, 5° C., 19 Days) was 1.75 Wt % and the “Solubility in DMF/water/acetonitrile” value ([1]; 20/10/70 D/W/A, 25° C., 4 Days) was 3.46 Wt %. The “Solubility in DMF/water/acetonitrile” value ([1]; 20/10/70 D/W/A, 25° C., 19 Days) was 2.33 Wt %, the “Solubility in DMF/water/acetonitrile” value ([1]; 22.5/7.5/70 D/W/A, 5° C., 4 Days) was 3.06 Wt % and the “Solubility in DMF/water/acetonitrile” value ([1]; 22.5/7.5/70 D/W/A, 5° C., 19 Days) was 2.75 Wt %. The “Solubility in DMF/water/acetonitrile” value ([1]; 22.5/7.5/70 D/W/A, 25° C., 4 Days) was 4.90 Wt % and the “Solubility in DMF/water/acetonitrile” value ([1]; 22.5/7.5/70 D/W/A, 25° C., 19 Days) was 7.38 Wt %.
For `CC(=N)NCCSC[C@](C)(N)C(=O)O` [S-[2-[(1-Iminoethyl)amino]ethyl]-2-methyl-L-cysteine], the “Purity At The Time Of Titration” value ([2]; Sample pH 2.13) was 98.6 Peak Area %, the “Purity One Week After Titration” value ([2]; Sample pH 2.13) was 98.4 Peak Area % and the “Purity At The Time Of Titration” value ([2]; Sample pH 3.83) was 98.7 Peak Area %. The “Purity One Week After Titration” value ([2]; Sample pH 3.83) was 98.1 Peak Area %, the “Purity At The Time Of Titration” value ([2]; Sample pH 8.48) was 98.5 Peak Area % and the “Purity One Week After Titration” value ([2]; Sample pH 8.48) was 97.4 Peak Area %. The “Purity At The Time Of Titration” value ([2]; Sample pH 9.37) was 98.5 Peak Area %, the “Purity One Week After Titration” value ([2]; Sample pH 9.37) was 97.2 Peak Area % and the “Purity At The Time Of Titration” value ([2]; Sample pH 9.78) was 98.3 Peak Area %. For the same compound, the “Purity One Week After Titration” value ([2]; Sample pH 9.78) was 97.2 Peak Area %, the “Purity At The Time Of Titration” value ([2]; Sample pH 10.27) was 98.3 Peak Area % and the “Purity One Week After Titration” value ([2]; Sample pH 10.27) was 96.4 Peak Area %. The “Purity At The Time Of Titration” value ([2]; Sample pH 10.83) was 96.6 Peak Area %, the “Purity One Week After Titration” value ([2]; Sample pH 10.83) was 94.7 Peak Area % and the “Purity At The Time Of Titration” value ([2]; Sample pH 11.6) was 98.3 Peak Area %. The “Purity One Week After Titration” value ([2]; Sample pH 11.6) was 92.4 Peak Area %, the “Purity At The Time Of Titration” value ([2]; Sample pH 11.75) was 97.9 Peak Area % and the “Purity One Week After Titration” value ([2]; Sample pH 11.75) was 89.2 Peak Area %. For the same compound, the “Purity At The Time Of Titration” value ([2]; Sample pH .94) was 98.0 Peak Area %, the “Purity One Week After Titration” value ([2]; Sample pH .94) was 98.3 Peak Area % and the “Difference between HPLC traces of starting material and product” value [3] was “No difference”. The pKa (physchem) was ~8.4, the “pH of slower rise representative of the pK” value ([4]; amidine group) was ~11 and the “pH of slower rise representative of the pK” value ([4]; amine group) was ~9. The “pH of slower rise representative of the pK” value ([4]; carboxylic acid group) was ~2 and the “Degradation by HPLC assay of the samples” value ([4]; samples titrated up to final pH 10.8, Example 3) was “no degradation”.
With “S-[2-[(1-Iminoethyl)amino]ethyl]-2-methyl-L-cysteine maleate crystalline salt Form I” the “Water absorbed by weight” value [5] was “less than one percent”.
